ChEMBL document CHEMBL4507266, “Data for DCP probe BAY-784” (2021)

Experiments:
[1] = molecular target: Leucine-rich repeat serine/threonine-protein kinase 2 (Homo sapiens) (UniProt Q5S007); settings: Compound concentration 1000.0 nM
[2] = system: Epidermal growth factor receptor (Homo sapiens), P00533 [UNDEFINED MUTATION]; settings: Compound concentration 1000.0 nM
[3] = system: Tyrosine-protein kinase ABL1 (Homo sapiens), P00519 [E255K]; settings: Compound concentration 1000.0 nM
[4] = molecular target: Interleukin-1 receptor-associated kinase 3 (Homo sapiens) (UniProt Q9Y616); settings: Compound concentration 1000.0 nM
[5] = molecular target: Tyrosine-protein kinase HCK (Homo sapiens) (UniProt P08631); settings: Compound concentration 1000.0 nM
[6] = system: Tyrosine-protein kinase ABL1 (Homo sapiens), P00519 [F317I]; settings: Compound concentration 1000.0 nM
[7] = molecular target: Epidermal growth factor receptor (Homo sapiens) (UniProt P00533); settings: Compound concentration 1000.0 nM
[8] = molecular target: Alpha-1B adrenergic receptor (Homo sapiens) (UniProt P35368); settings: Compound concentration 10.0 uM
[9] = molecular target: D(3) dopamine receptor (Homo sapiens) (UniProt P35462); settings: Compound concentration 10.0 uM
[10] = molecular target: Interferon-induced, double-stranded RNA-activated protein kinase (Homo sapiens) (UniProt P19525); settings: Compound concentration 1000.0 nM
[11] = molecular target: Calcium/calmodulin-dependent protein kinase type 1B (Homo sapiens) (UniProt Q6P2M8); settings: Compound concentration 1000.0 nM
[12] = molecular target: Cyclin-dependent kinase 13 (Homo sapiens) (UniProt Q14004); settings: Compound concentration 1000.0 nM
[13] = molecular target: Calcium/calmodulin-dependent protein kinase type IV (Homo sapiens) (UniProt Q16566); settings: Compound concentration 1000.0 nM
[14] = molecular target: Casein kinase I isoform alpha (Homo sapiens) (UniProt P48729); settings: Compound concentration 1000.0 nM
[15] = system: Tyrosine-protein kinase ABL1 (Homo sapiens), P00519 [H396P]; settings: Compound concentration 1000.0 nM
[16] = molecular target: Receptor-interacting serine/threonine-protein kinase 4 (Homo sapiens) (UniProt P57078); settings: Compound concentration 1000.0 nM
[17] = system: Mast/stem cell growth factor receptor Kit (Homo sapiens), P10721 [D816V]; settings: Compound concentration 1000.0 nM
[18] = molecular target: Serine/threonine-protein kinase 16 (Homo sapiens) (UniProt O75716); settings: Compound concentration 1000.0 nM
[19] = molecular target: Dual specificity mitogen-activated protein kinase kinase 5 (Homo sapiens) (UniProt Q13163); settings: Compound concentration 1000.0 nM
[20] = molecular target: SNF-related serine/threonine-protein kinase (Homo sapiens) (UniProt Q9NRH2); settings: Compound concentration 1000.0 nM
[21] = system: Receptor-type tyrosine-protein kinase FLT3 (Homo sapiens), P36888 [D835H]; settings: Compound concentration 1000.0 nM
[22] = system: Epidermal growth factor receptor (Homo sapiens), P00533 [UNDEFINED MUTATION]; settings: Compound concentration 1000.0 nM; remark: listed apart in the source
[23] = molecular target: Serine/threonine-protein kinase Sgk3 (Homo sapiens) (UniProt Q96BR1); settings: Compound concentration 1000.0 nM
[24] = molecular target: Ribosomal protein S6 kinase alpha-1 (Homo sapiens) (UniProt Q15418); settings: Compound concentration 1000.0 nM
[25] = molecular target: Tyrosine-protein kinase receptor TYRO3 (Homo sapiens) (UniProt Q06418); settings: Compound concentration 1000.0 nM
Tyrosine-protein kinase receptor TYRO3 (Homo sapiens), sequence (Q06418 whole entry): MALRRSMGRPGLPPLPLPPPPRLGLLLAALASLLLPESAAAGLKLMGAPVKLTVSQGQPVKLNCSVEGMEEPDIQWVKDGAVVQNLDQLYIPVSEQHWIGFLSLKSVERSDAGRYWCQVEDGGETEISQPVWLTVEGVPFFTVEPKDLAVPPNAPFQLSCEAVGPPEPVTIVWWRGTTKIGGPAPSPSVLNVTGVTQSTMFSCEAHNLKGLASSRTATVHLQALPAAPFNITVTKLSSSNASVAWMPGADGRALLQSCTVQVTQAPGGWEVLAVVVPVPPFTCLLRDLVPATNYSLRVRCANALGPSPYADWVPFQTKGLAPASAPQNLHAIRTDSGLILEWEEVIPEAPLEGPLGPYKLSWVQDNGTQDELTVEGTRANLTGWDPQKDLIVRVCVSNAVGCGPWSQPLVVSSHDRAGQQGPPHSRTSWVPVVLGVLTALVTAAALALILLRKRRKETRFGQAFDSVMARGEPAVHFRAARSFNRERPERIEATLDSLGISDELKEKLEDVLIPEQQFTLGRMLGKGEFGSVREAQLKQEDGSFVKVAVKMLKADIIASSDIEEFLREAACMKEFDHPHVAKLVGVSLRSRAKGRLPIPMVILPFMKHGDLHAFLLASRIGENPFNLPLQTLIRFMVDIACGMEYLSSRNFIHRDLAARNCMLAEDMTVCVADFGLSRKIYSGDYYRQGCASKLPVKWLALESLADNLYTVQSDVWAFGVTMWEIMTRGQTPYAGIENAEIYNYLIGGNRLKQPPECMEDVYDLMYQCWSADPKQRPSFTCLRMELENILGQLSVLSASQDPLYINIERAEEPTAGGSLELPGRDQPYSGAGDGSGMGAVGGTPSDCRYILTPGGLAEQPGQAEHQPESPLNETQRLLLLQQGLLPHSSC

[26] = system: Receptor-type tyrosine-protein kinase FLT3 (Homo sapiens), P36888 [N841I]; settings: Compound concentration 1000.0 nM
[27] = molecular target: NT-3 growth factor receptor (Homo sapiens) (UniProt Q16288); settings: Compound concentration 1000.0 nM
[28] = molecular target: Phosphatidylinositol 3-kinase C2 domain-containing subunit gamma (Homo sapiens) (UniProt O75747); settings: Compound concentration 1000.0 nM
[29] = molecular target: Mitogen-activated protein kinase 7 (Homo sapiens) (UniProt Q13164); settings: Compound concentration 1000.0 nM
Mitogen-activated protein kinase 7 (Homo sapiens), sequence (Q13164 2-816 limits assumed): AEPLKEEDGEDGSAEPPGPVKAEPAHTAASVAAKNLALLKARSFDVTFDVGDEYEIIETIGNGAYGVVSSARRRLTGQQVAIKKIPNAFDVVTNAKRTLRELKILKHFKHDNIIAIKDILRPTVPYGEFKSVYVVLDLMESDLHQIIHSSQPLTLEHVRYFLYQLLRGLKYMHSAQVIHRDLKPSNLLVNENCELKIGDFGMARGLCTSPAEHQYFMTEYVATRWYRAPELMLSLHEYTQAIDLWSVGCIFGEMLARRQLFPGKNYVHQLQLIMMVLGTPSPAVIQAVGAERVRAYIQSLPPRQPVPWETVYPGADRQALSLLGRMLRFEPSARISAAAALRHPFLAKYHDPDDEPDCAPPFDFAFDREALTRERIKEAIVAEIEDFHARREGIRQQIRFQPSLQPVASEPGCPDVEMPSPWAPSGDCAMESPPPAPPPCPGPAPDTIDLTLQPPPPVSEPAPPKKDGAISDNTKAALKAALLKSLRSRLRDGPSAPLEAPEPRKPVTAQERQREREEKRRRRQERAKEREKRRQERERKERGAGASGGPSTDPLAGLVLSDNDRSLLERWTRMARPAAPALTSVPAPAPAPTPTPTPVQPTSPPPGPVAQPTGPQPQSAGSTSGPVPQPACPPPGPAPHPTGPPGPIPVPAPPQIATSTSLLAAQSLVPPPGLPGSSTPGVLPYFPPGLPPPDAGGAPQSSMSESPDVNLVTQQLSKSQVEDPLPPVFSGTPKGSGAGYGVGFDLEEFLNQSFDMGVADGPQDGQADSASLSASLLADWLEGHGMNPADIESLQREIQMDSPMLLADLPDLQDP

[30] = molecular target: Ribosomal protein S6 kinase alpha-6 (Homo sapiens) (UniProt Q9UK32); settings: Compound concentration 1000.0 nM
Ribosomal protein S6 kinase alpha-6 (Homo sapiens), sequence (Q9UK32 whole entry): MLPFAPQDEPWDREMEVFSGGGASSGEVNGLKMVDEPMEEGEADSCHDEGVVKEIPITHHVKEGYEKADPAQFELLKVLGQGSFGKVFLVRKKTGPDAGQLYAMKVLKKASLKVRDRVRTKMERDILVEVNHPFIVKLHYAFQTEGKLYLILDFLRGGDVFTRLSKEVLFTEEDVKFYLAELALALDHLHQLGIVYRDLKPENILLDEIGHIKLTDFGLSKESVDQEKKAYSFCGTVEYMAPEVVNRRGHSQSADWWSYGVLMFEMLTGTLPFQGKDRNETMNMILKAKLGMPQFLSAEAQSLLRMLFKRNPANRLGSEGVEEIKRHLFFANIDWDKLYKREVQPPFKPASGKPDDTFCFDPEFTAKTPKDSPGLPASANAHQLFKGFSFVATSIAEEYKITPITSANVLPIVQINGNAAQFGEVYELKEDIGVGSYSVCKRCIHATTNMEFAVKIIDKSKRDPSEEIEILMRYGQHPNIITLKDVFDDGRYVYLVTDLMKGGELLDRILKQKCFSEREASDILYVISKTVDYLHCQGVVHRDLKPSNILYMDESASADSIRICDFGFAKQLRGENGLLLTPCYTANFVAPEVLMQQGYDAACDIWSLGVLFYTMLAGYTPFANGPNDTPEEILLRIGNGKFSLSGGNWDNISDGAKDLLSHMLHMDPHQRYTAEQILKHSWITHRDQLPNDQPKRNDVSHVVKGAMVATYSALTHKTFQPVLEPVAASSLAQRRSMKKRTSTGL

[31] = molecular target: Mitogen-activated protein kinase 1 (Homo sapiens) (UniProt P28482); settings: Compound concentration 1000.0 nM
[32] = molecular target: Serine/threonine-protein kinase BRSK2 (Homo sapiens) (UniProt Q8IWQ3); settings: Compound concentration 1000.0 nM
[33] = molecular target: Dual specificity testis-specific protein kinase 1 (Homo sapiens) (UniProt Q15569); settings: Compound concentration 1000.0 nM
[34] = molecular target: Serine/threonine-protein kinase MARK1 (Homo sapiens) (UniProt Q9P0L2); settings: Compound concentration 1000.0 nM
[35] = molecular target: Ribosomal protein S6 kinase alpha-6 (Homo sapiens) (UniProt Q9UK32); settings: Compound concentration 1000.0 nM; remark: listed apart in the source
[36] = molecular target: Tyrosine-protein kinase ABL1 (Homo sapiens) (UniProt P00519); settings: Compound concentration 1000.0 nM
[37] = molecular target: Ribosomal protein S6 kinase alpha-2 (Homo sapiens) (UniProt Q15349); settings: Compound concentration 1000.0 nM
[38] = molecular target: Tyrosine-protein kinase JAK1 (Homo sapiens) (UniProt P23458); settings: Compound concentration 1000.0 nM
[39] = molecular target: Receptor-type tyrosine-protein kinase FLT3 (Homo sapiens) (UniProt P36888); settings: Compound concentration 1000.0 nM
[40] = molecular target: RAC-beta serine/threonine-protein kinase (Homo sapiens) (UniProt P31751); settings: Compound concentration 1000.0 nM
[41] = molecular target: High affinity nerve growth factor receptor (Homo sapiens) (UniProt P04629); settings: Compound concentration 1000.0 nM
High affinity nerve growth factor receptor (Homo sapiens), sequence (P04629 33-796 limits assumed): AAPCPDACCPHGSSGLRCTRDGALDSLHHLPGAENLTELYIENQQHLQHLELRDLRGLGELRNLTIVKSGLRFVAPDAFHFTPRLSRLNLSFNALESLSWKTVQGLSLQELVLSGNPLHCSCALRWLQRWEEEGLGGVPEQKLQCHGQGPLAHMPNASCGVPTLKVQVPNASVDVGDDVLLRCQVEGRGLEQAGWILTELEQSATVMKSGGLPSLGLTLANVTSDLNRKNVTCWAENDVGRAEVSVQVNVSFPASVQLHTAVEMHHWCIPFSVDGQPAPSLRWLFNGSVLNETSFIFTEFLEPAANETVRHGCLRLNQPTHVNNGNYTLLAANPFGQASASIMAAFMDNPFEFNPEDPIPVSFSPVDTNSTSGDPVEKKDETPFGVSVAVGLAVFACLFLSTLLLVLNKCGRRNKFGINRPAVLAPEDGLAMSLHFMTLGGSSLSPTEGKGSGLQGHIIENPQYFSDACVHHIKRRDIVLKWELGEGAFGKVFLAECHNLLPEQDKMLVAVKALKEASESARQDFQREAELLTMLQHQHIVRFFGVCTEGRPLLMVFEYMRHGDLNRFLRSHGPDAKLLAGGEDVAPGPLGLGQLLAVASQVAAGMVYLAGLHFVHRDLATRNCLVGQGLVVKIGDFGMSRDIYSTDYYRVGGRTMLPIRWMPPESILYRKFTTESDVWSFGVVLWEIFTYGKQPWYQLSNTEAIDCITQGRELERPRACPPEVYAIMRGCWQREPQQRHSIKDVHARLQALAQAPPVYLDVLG

[42] = molecular target: Tyrosine-protein kinase Yes (Homo sapiens) (UniProt P07947); settings: Compound concentration 1000.0 nM
[43] = molecular target: Serine/threonine-protein kinase Chk1 (Homo sapiens) (UniProt O14757); settings: Compound concentration 1000.0 nM
[44] = molecular target: cGMP-dependent protein kinase 1 (Homo sapiens) (UniProt Q13976); settings: Compound concentration 1000.0 nM
cGMP-dependent protein kinase 1 (Homo sapiens), sequence (Q13976 whole entry): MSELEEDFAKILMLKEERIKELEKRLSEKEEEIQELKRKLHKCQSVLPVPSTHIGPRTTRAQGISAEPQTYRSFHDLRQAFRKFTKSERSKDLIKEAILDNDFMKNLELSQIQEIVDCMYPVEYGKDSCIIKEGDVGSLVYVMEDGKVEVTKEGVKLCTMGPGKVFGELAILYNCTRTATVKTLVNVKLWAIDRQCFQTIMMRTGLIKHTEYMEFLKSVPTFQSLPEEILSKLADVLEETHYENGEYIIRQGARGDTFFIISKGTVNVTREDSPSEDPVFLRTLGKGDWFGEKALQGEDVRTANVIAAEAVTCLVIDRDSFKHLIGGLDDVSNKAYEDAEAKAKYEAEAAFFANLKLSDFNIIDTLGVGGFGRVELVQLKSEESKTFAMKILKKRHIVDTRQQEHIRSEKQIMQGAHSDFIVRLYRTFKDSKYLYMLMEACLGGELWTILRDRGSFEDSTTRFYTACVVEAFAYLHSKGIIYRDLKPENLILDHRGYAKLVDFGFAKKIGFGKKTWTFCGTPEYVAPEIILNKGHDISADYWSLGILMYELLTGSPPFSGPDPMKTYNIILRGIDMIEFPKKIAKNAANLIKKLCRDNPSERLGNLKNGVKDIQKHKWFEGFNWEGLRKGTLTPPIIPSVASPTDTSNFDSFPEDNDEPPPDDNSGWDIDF

[45] = system: Epidermal growth factor receptor (Homo sapiens), P00533 [UNDEFINED MUTATION]; settings: Compound concentration 1000.0 nM; remark: listed apart in the source

Epidermal growth factor receptor (Homo sapiens), P00533 [UNDEFINED MUTATION], sequence (P00533 whole entry, looked up, stated change not applied): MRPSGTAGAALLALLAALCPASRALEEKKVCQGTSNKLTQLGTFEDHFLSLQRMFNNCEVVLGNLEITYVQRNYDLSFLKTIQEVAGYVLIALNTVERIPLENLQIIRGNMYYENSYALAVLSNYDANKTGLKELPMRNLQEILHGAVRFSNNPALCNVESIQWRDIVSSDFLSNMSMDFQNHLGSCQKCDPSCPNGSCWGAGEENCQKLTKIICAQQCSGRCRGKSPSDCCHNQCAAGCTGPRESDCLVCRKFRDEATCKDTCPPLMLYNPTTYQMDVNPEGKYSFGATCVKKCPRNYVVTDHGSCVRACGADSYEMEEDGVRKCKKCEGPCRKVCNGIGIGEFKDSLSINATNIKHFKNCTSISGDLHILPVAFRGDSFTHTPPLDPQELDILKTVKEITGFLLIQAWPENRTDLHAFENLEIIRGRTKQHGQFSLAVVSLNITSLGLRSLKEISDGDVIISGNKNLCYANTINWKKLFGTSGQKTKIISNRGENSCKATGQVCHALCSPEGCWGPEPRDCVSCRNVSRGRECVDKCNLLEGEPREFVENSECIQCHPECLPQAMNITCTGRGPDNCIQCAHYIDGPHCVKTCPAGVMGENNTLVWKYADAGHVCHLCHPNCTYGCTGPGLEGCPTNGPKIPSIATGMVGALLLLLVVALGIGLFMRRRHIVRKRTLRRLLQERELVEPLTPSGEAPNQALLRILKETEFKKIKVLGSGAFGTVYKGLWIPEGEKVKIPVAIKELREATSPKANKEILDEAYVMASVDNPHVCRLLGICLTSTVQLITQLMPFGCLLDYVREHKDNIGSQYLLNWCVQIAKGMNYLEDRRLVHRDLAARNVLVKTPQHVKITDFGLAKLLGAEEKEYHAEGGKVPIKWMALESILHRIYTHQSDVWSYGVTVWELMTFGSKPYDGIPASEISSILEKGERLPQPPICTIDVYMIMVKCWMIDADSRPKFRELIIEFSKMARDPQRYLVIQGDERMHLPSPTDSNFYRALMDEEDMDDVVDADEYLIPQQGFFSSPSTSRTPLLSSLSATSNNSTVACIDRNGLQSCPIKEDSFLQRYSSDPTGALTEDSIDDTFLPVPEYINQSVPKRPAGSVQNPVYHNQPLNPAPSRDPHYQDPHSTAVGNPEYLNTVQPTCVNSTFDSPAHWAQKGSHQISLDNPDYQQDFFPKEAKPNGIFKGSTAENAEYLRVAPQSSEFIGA

O=C(NCc1ncc(C(F)(F)F)cc1Cl)c1ccc2c(c1)C1(CCS(=O)(=O)CC1)[C@H](C1CC1)N2S(=O)(=O)c1ccc(F)cc1 [BAY-784]
inactive: residual activity [1] 82% | residual activity [2] 100% | residual activity [3] 80% | residual activity [4] 99% | residual activity [5] 69% | residual activity [6] 83% | residual activity [7] 95% | inhibition [8] -4.46% | inhibition [9] 9.45% | residual activity [10] 100% | residual activity [11] 91% | residual activity [12] 88% | residual activity [13] 86% | residual activity [14] 92% | residual activity [15] 100% | residual activity [16] 93% | residual activity [17] 100% | residual activity [18] 88% | residual activity [19] 69% | residual activity [20] 77% | residual activity [21] 92% | residual activity [22] 100% | residual activity [23] 99% | residual activity [24] 100% | residual activity [25] 100% | residual activity [26] 58% | residual activity [27] 84% | residual activity [28] 75% | residual activity [29] 99% | residual activity [30] 87% | residual activity [31] 81% | residual activity [32] 100% | residual activity [33] 91% | residual activity [34] 100% | residual activity [35] 78% | residual activity [36] 92% | residual activity [37] 100% | residual activity [38] 87% | residual activity [39] 95% | residual activity [40] 100% | residual activity [41] 80% | residual activity [42] 90% | residual activity [43] 100% | residual activity [44] 100% | residual activity [45] 97%

O=C(NCc1ncc(C(F)(F)F)cc1Cl)c1ccc2c(c1)C1(CCS(=O)(=O)CC1)[C@@H](C1CC1)N2S(=O)(=O)c1ccc(F)cc1 [BAY-786]
inactive: residual activity [1] 98% | residual activity [2] 87% | residual activity [3] 100% | residual activity [4] 100% | residual activity [5] 86% | residual activity [6] 80% | residual activity [7] 100% | inhibition [8] -8.58% | inhibition [9] 3.82% | residual activity [10] 97% | residual activity [11] 96% | residual activity [12] 89% | residual activity [13] 71% | residual activity [14] 81% | residual activity [15] 100% | residual activity [16] 72% | residual activity [17] 89% | residual activity [18] 99% | residual activity [19] 90% | residual activity [20] 96% | residual activity [21] 100% | residual activity [22] 79% | residual activity [23] 83% | residual activity [24] 89% | residual activity [25] 84% | residual activity [26] 78% | residual activity [27] 71% | residual activity [28] 75% | residual activity [29] 97% | residual activity [30] 100% | residual activity [31] 83% | residual activity [32] 100% | residual activity [33] 85% | residual activity [34] 100% | residual activity [35] 84% | residual activity [36] 89% | residual activity [37] 93% | residual activity [38] 85% | residual activity [39] 94% | residual activity [40] 100% | residual activity [41] 75% | residual activity [42] 93% | residual activity [43] 100% | residual activity [44] 100% | residual activity [45] 69%
